Results from PMC12096176 (RSC Chemical Biology, 2025).

Tests used:
MOR [1] = format: binding; details: for Selectivity D/M: ratio Ki DOR / Ki MOR; for Selectivity K/M: ratio Ki KOR / Ki MOR
KOR = KOR (Homo sapiens, UniProt P41145); format: binding
DOR = DOR (Homo sapiens, UniProt P41143); format: binding
MOR [2] = target: MOR (Mus musculus, UniProt P42866); assay: MOR [35S]GTPγS functional assay, MOR-CHO membranes; format: biochemical; details: for MOR [35S]GTPγS Emax: relative to maximal stimulation produced by DAMGO; for Emax: read-out: MOR [35S]GTPγS Emax, relative to maximal stimulation produced by DAMGO
Swiss Webster mice [3] = assay: Warm-water tail immersion assay, agonism; details: single dose 10 mg kg^−1 s.c., 20 min after injection
Swiss Webster mice [4] = assay: Warm-water tail immersion assay, antagonism of morphine antinociception; details: single dose 10 mg kg^−1 s.c. in the presence of morphine 10 mg kg^−1 s.c.

| Structure (SMILES) | Selectivity D/M (MOR [1]) | Selectivity K/M (MOR [1]) | Ki (KOR) [nM] | Ki (DOR) [nM] | EC50 (MOR [2]) [nM] | MOR [35S]GTPγS Emax (MOR [2]) [%] | Emax (MOR [2]) [%] | %MPE (antinociception) (Swiss Webster mice [3]) [%] | ability to reverse the antinociceptive effects of morphine (Swiss Webster mice [4]) |
| --- | --- | --- | --- | --- | --- | --- | --- | --- | --- |
| Cl.O=C(N[C@H]1CC[C@@]2(O)[C@H]3Cc4ccc(O)c5c4[C@@]2(CCN3CC2CC2)[C@H]1O5)c1cccc2c(Br)coc12 [Compound 2, 3-Bromo-N-((4R,4aS,7S,7aR,12bS)-3-(cyclopropylmethyl)-4a,9-dihydroxy-2,3,4,4a,5,6,7,7a-octahydro-1H-4,12-methanobenzofuro[3,2-e]isoquinolin-7-yl)benzofuran-7-carboxamide hydrochloride] | 154 | 30 | 17.3 ± 1.2 | 87.8 ± 5.5 | 7.37 ± 2.32 | 16.0 ± 4.0 | – | – | – |
| O=C(N[C@H]1CC[C@@]2(O)[C@H]3Cc4ccc(O)c5c4[C@@]2(CCN3CC2CC2)[C@H]1O5)c1cccc2c(Cl)coc12 [Compound 3, 3-Chloro-N-((4R,4aS,7S,7aR,12bS)-3-(cyclopropylmethyl)-4a,9-dihydroxy-2,3,4,4a,5,6,7,7a-octahydro-1H-4,12-methanobenzofuro[3,2-e]isoquinolin-7-yl)benzofuran-7-carboxamide] | 277 | 34 | 17.1 ± 1.3 | 138 ± 24 | 2.65 ± 0.47 | – | 21.6 ± 0.8 | – | – |
| Cc1coc2c(C(=O)N[C@H]3CC[C@@]4(O)[C@H]5Cc6ccc(O)c7c6[C@@]4(CCN5CC4CC4)[C@H]3O7)cccc12 [Compound 4, N-((4R,4aS,7S,7aR,12bS)-3-(Cyclopropylmethyl)-4a,9-dihydroxy-2,3,4,4a,5,6,7,7a-octahydro-1H-4,12-methanobenzofuro[3,2-e]isoquinolin-7-yl)-3-methylbenzofuran-7-carboxamide] | 130 | 23 | 15.7 ± 1.3 | 87 ± 5.3 | 4.52 ± 0.39 | – | 23.5 ± 1.6 | – | – |
| O=C(N[C@H]1CC[C@@]2(O)[C@H]3Cc4ccc(O)c5c4[C@@]2(CCN3CC2CC2)[C@H]1O5)c1cccc2c(-c3ccccc3)coc12 [Compound 5, N-((4R,4aS,7S,7aR,12bS)-3-(Cyclopropylmethyl)-4a,9-dihydroxy-2,3,4,4a,5,6,7,7a-octahydro-1H-4,12-methanobenzofuro[3,2-e]isoquinolin-7-yl)-3-phenylbenzofuran-7-carboxamide] | 173 | 24 | 33.8 ± 5.6 | 238 ± 28 | 27.4 ± 5 | – | 17.3 ± 1 | – | – |
| O=C(N[C@H]1CC[C@@]2(O)[C@H]3Cc4ccc(O)c5c4[C@@]2(CCN3CC2CC2)[C@H]1O5)c1cccc2c(-c3ccncc3)coc12 [Compound 6, N-((4R,4aS,7S,7aR,12bS)-3-(Cyclopropylmethyl)-4a,9-dihydroxy-2,3,4,4a,5,6,7,7a-octahydro-1H-4,12-methanobenzofuro[3,2-e]isoquinolin-7-yl)-3-(pyridin-4-yl)benzofuran-7-carboxamide] | 41 | 3.7 | 8.7 ± 1.5 | 97.7 ± 16.3 | 12 ± 2.1 | – | 14.8 ± 1.6 | – | – |
| Cl.O=C(N[C@@H]1CC[C@@]2(O)[C@H]3Cc4ccc(O)c5c4[C@@]2(CCN3CC2CC2)[C@H]1O5)c1cccc2c(Br)coc12 [Compound 8, 3-Bromo-N-((4R,4aS,7R,7aR,12bS)-3-(cyclopropylmethyl)-4a,9-dihydroxy-2,3,4,4a,5,6,7,7a-octahydro-1H-4,12-methanobenzofuro[3,2-e]isoquinolin-7-yl)benzofuran-7-carboxamide hydrochloride] | 27 | 1.0 | 0.21 ± 0.01 | 5.34 ± 0.99 | 0.49 ± 0.08 | 42.9 ± 3.9 | – | 90.9 | – |
| O=C(N[C@@H]1CC[C@@]2(O)[C@H]3Cc4ccc(O)c5c4[C@@]2(CCN3CC2CC2)[C@H]1O5)c1cccc2c(Cl)coc12 [Compound 9, 3-Chloro-N-((4R,4aS,7R,7aR,12bS)-3-(cyclopropylmethyl)-4a,9-dihydroxy-2,3,4,4a,5,6,7,7a-octahydro-1H-4,12-methanobenzofuro[3,2-e]isoquinolin-7-yl)benzofuran-7-carboxamide] | 37 | 1.1 | 0.16 ± 0.02 | 5.17 ± 1.13 | 0.35 ± 0.07 | – | 51.2 ± 3.4 | 84.5 | – |
| Cc1coc2c(C(=O)N[C@@H]3CC[C@@]4(O)[C@H]5Cc6ccc(O)c7c6[C@@]4(CCN5CC4CC4)[C@H]3O7)cccc12 [Compound 10, N-((4R,4aS,7R,7aR,12bS)-3-(Cyclopropylmethyl)-4a,9-dihydroxy-2,3,4,4a,5,6,7,7a-octahydro-1H-4,12-methanobenzofuro[3,2-e]isoquinolin-7-yl)-3-methylbenzofuran-7-carboxamide] | 57 | 1.9 | 0.44 ± 0.08 | 13.1 ± 1.1 | 0.81 ± 0.14 | – | 32.7 ± 3.3 | 54.2 | – |
| O=C(N[C@@H]1CC[C@@]2(O)[C@H]3Cc4ccc(O)c5c4[C@@]2(CCN3CC2CC2)[C@H]1O5)c1cccc2c(-c3ccccc3)coc12 [Compound 11, N-((4R,4aS,7R,7aR,12bS)-3-(Cyclopropylmethyl)-4a,9-dihydroxy-2,3,4,4a,5,6,7,7a-octahydro-1H-4,12-methanobenzofuro[3,2-e]isoquinolin-7-yl)-3-phenylbenzofuran-7-carboxamide] | 123 | 110 | 19.7 ± 2.2 | 22.1 ± 3.2 | 0.56 ± 0.07 | – | ~10 | – | considerable antagonism activity |
| O=C(N[C@@H]1CC[C@@]2(O)[C@H]3Cc4ccc(O)c5c4[C@@]2(CCN3CC2CC2)[C@H]1O5)c1cccc2c(-c3ccncc3)coc12 [Compound 12, N-((4R,4aS,7R,7aR,12bS)-3-(Cyclopropylmethyl)-4a,9-dihydroxy-2,3,4,4a,5,6,7,7a-octahydro-1H-4,12-methanobenzofuro[3,2-e]isoquinolin-7-yl)-3-(pyridin-4-yl)benzofuran-7-carboxamide] | 213 | 35 | 7.34 ± 0.95 | 45 ± 9.3 | 1.2 ± 0.38 | – | ~10 | – | considerable antagonism activity |
